In patent publication US20060160791A1, “Wood preservative formulations” (priority 1999, published 2006):

System: soft rot fungi belonging to the groups Ascomycotina and Deuteromycotina
Experiment: Soft rot soil burial test on treated beech blocks (similar to ENV-807, toxic limits per EN113)
Settings: for Toxic Limit Value: active ingredient retention, beech blocks, John Innes No. 2 compost, 14 weeks at 28° C, lower-upper limits spanning pass/fail (>3% mass loss); for Effective Retention of Tebuconazole: tebuconazole retention needed
From the text: The toxic limit value for a particular biocidal compound is the concentration of the compound which is required to prevent degradation (defined as >3% mass loss) of a substrate by a target organism. Toxic limits are normally expressed as two experimentally-determined concentrations that span the pass/fail point of the test. The toxic index is the midpoint of these two values.
A convenient method of assessing the synergistic properties of a formulation is to use a ‘synergistic index’. This may be defined as: [formula]
The theoretical toxic index may be calculated by interpolation to the theoretical line of action. A SI of 1 indicates no synergism. As the SI increases, so the degree of synergism also increases.
Testing was carried out to determine the performance of active ingredients alone and in mixture using a soft rot soil burial method.
Beech (Fagus sylvatica) blocks measuring 5×5×30 mm were prepared from local grown, seasoned, knot-free sapwood. After oven drying and weighing, the blocks were vacuum impregnated (in groups of 6 replicates) with retentions of the test preservatives which had been freshly prepared using deionised water as the diluent.
After treatment, the blocks were covered with polythene for a period of one week to reduce the drying rate and allow any fixation reactions to occur. They were then fully ventilated by standing on the laboratory bench for 2 weeks and allowed to dry.
Each series of blocks was then exposed in John Innes (No. 2) compost, previously wetted to 110% of water holding capacity using deionised water. The test systems were then incubated for 14 weeks at 28° C.
Following incubation, blocks were removed from the soil, gently rinsed in clean water and then oven dried and re-weighed.
Preservative retention and weight change data were calculated for each block and the results expressed as toxic limit values according to the criteria laid down in the test method EN113.
Where the lower toxic limit value provides a weight loss of 10% m/m or greater, then the upper toxic limit value has been used to indicate the probable effective retention of preservative; this is in accordance with EN113.

## [O-][S+]1CCON=C1c1cc2ccccc2s1 (stereo not shown) [Bethoxazin, 3-(benzo[b]thien-2-yl)-5,6-dihydro-1,4,2-oxathiazine 4-oxide]
  Toxic Limit Value: >0.77 kgm^−3
Bethoxazin retention needed, alone or as part of the named mixture, EN113 conventions
  Effective Retention of Bethoxazin: >0.77 kgm^−3

## CC(C1CC1)C(O)(Cn1cncn1)c1ccc(Cl)cc1 (stereo not drawn) [Cyproconazole, (2RS,3RS; 2RS,3SR)-2-(4-chlorophenyl)-3-cyclopropyl-1-(1H-1,2,4-triazol-1-yl)butan-2-ol]
Cyproconazole retention needed, alone or as part of the named mixture, EN113 conventions
  Effective Retention of Cyproconazole: 1.25 kgm^−3

## CCCC1COC(Cn2cncn2)(c2ccc(Cl)cc2Cl)O1 (stereo not shown) [Propiconazole, 1-[[2-(2-4-dichlorophenyl)-4-propyl-1,3-dioxolan-2-yl]methyl]-1H-1,2,4-triazole]
  Toxic Limit Value: >7.0 kgm^−3
Propiconazole retention needed, alone or as part of the named mixture, EN113 conventions
  Effective Retention of Propiconazole: >7.0 kgm^−3

## CC(C)(C)C(O)(CCc1ccc(Cl)cc1)Cn1cncn1 (stereo not drawn) [Tebuconazole, alpha-[2-(4-chlorophenyl)ethyl]-alpha(1,1-dimethylethyl)-1H-1,2,4-triazole-1-ethanol]
  Toxic Limit Value: >7.0 kgm^−3
Alone or as part of the named mixture, EN113 conventions
  Effective Retention of Tebuconazole: >7.0 kgm^−3
Alone or as part of the named mixture, EN113 conventions, listed as tebuconazole
  Effective Retention of Tebuconazole: > 7 kgm^−3

## N,N-didecyl-N-methyl-poly(oxyethyl)ammonium propionate [Bardap 26]
Bardap 26 retention needed, alone or as part of the named mixture, EN113 conventions
  Effective Retention of Bardap 26: >6.2 kgm^−3
  Toxic Limit Value: >6.2 kgm^−3
